A short description of series [1]: Antiinflammatory activity in mouse RAW264.7 cells assessed as reduction in LPS-induced NO production after 24 hrs in presence of LPS by colorimetric analysis. The series is classed as functional, cell-based. The following applies: RAW264.7, 24 h.
The species named for series [2] is Mus musculus. Nature of the series: Cytotoxicity against mouse RAW264.7 cells assessed as reduction in cell viability at 1 to 10 uM after 24 hrs by cell counting based colorimetric analysis. It counts as toxicity. The following applies: raw264.7, 24 h.

On to `CC#Cc1ccc(-c2ccc(C(O)CO)s2)s1` (stereo not given), for which the IC50 in series [1] stood at 48.7 µM. For the compound `C=C1CCC[C@]2(C)C[C@]3(O)OC(=O)C(C)=C3C[C@@H]12` [ATRACTYLENOLIDE III], the IC50 in series [1] was greater than 100 µM. `C/C=C\C#CC#Cc1ccc(C(O)CO)s1` (stereo not given): the IC50 in series [1] stood at 12.8 µM. Take `N=C(N)NN` [PIMAGEDINE]: the IC50 in series [1] stood at 24.2 µM.

As to `C/C=C/C#CC#Cc1ccc(C(O)CO)s1` (stereo not given), the IC50 in series [1] came to 28.2 µM.

For the compound `CC#Cc1ccc(-c2ccc(C=O)s2)s1`, the IC50 in series [1] is greater than 100 µM. Turning to `CC#Cc1ccc(-c2ccc(C(=O)OC)s2)s1`, the IC50 in series [1] is greater than 100 µM. As for `CC#Cc1ccc(-c2ccc(C(CO)OC)s2)s1` (stereo not given), the IC50 in series [1] was found to be 30.9 µM. In the case of `COc1ccc2c(c1)c(CC(=O)O)c(C)n2C(=O)c1ccc(Cl)cc1` [INDOMETHACIN], in series [1], the IC50 came to 13.2 µM. On to `C=C(C)[C@@H]1CC[C@]2(C)C(=C(C)OC3=C2C[C@H]2C4C[C@H](C(C)C)CC[C@@]4(C)CC(=O)[C@@]2(O)O3)C1` (stereo not given in full), for which, in series [2], the Activity entry is given as “Toxic”.
